Data: patent US12551524B2 (U.S. NUTRACEUTICALS, INC., priority 2021, dated 2026)

Columns and labels:
[1] = test system: men with mild to moderate androgenic alopecia; details: 1 milligram per day, 24 months, 100 men; cited from earlier work
normal shaved mice = details: after about 20 days; cited from earlier work
[2] = biological target: T1, 5α-Reductase Type 1 enzyme (Homo sapiens, UniProt P18405); test: Inhibition of 5α-Reductase Type 1; type: biochemical
T1 sequence (P18405 1-259): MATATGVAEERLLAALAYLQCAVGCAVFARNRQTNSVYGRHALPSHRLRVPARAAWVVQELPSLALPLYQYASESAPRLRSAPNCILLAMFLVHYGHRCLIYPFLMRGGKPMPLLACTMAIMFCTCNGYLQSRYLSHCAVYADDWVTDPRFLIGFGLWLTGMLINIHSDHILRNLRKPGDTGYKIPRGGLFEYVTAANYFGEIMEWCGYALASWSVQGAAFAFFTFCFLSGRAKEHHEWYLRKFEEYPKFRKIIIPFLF
Excerpt: (§1) The different free fatty acids of medium and long saturated chains and long unsaturated chains are shown, together with esterified fatty acids, oxidized fatty acids, fatty alcohols, phytosterols, and other components. The magnitude of the activity is designated by “none,” “moderate” or “very active” (FIG. 3). The various constituents shown in the table of FIG. 2 are also shown and listed as free fatty acid molecules with: a) medium, saturated chains, b) long, saturated chains, and c) long unsaturated chains. There are esterified fatty acids, oxidized fatty acids, and fatty alcohols. These tables support other evidence that the five active free fatty acids for prostate and hair health are lauric, myristic, oleic, linoleic and linolenic free fatty acids.
Reference is now made to FIGS. 7B and 7C showing the use of a supercritical CO2 extracted LSESr and Permixon®.

[3] = biological target: T2, 5α-Reductase Type 2 enzyme (Homo sapiens, UniProt P31213); test: Inhibition of 5α-Reductase Type 2 (Inhibition Experiments 1 and 2); type: biochemical
T2 sequence (P31213 1-254): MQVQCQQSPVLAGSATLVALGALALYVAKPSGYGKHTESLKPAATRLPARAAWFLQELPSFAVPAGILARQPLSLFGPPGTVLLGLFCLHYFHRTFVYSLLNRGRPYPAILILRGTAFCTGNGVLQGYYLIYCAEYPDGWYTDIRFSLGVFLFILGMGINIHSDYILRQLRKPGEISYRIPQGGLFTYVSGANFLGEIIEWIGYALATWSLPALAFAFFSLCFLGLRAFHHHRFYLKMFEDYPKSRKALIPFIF
Excerpt: as §1
Data are shown in the graphs and bar charts of FIGS. 5 and 6 where data are reported as the effectiveness to inhibit enzyme activity (IC50). […]
Inhibition Experiment 2 shown in FIG. 6 determined the possible impact of Permixon® product matrix (PEG) on an in vitro assay and the pegylated and conventional ultra-high purity supercritical CO2 extract having the PEG matrix (U4602-PEG) was compared to the commercially available Permixon® and the conventional unpegylated product (U4602) for their ability to inhibit the 5α-Reductase 2 enzyme. […]

Question: Which “men who noted an improvement” value [1] does the source give for CC(C)(C)NC(=O)[C@H]1CC[C@H]2[C@@H]3CC[C@H]4NC(=O)C=C[C@]4(C)[C@H]3CC[C@]12C [finasteride] here?
Answer: 68%

Question: For CCCCC/C=C\C/C=C\CCCCCCCC(=O)O [linoleic acid], which hair growth (normal shaved mice) is on record?
Answer: about 100%

Question: Which results are given for CCCCCCCC/C=C\CCCCCCCC(=O)O [oleic acid]?
Answer: effect on 5α-Reductase-1 (in words) [2]: especially effective; effect on 5α-Reductase-2 (in words) [3]: not as much
